Assays:
[1] = system: rat ventral mesencephalan neurons; experiment: [3H]Dopamine cell culture assay (6-OHDA neurotoxicity); type: cell-based; conditions: approximately 3×10^−6 M compound; 6-OHDA 30 μM; uptake 22 hrs after exposure; FIG. 1
Procedure: Cultures of dopaminergic neurons were prepared according to a modification of the procedure described by Raymon and Leslie (J. Neurochem. 62, 1015-1024, 1994). Time-mated pregnant rats were sacrificed on embyronic day 14-15 (crown rump length 11-12 mm) and the embryos removed by cesarean section. The ventral mesencephalon, containing the dopaminergic neurons, was dissected from each embryo. Tissue pieces from approximately 48 embryos were pooled and dissociated both enzymatically and mechanically. An aliquot from the resulting cell suspension was counted and the cells were plated in high glucose DMEM/F12 culture medium with 10% fetal bovine serum at a density of 1×10^5 cells/well of a Biocoat poly-D-lysine-coated 96-well plate. The day following plating was considered 1 day in vitro (DIV). Cells were maintained in a stable environment at 37° C., 95% humidity, and 5% CO2. A partial medium change was performed at 3 DIV. […]
[^3H]Dopamine uptake is used as a measure of the health and integrity of dopaminergic neurons in culture (Prochiantz et al., PNAS 76: 5387-5391, 1979). […] Briefly, cells treated with 6-OHDA in the presence and absence of Compound CC were assessed in the uptake assay 22 hrs after exposure to 6-OHDA. […] Radioactivity was removed and the cultures were washed 3× with ice cold PBS. […]

[2] = Brain-blood plasma distribution in vivo; parameters: species or system Sprague-Dawley rats; conditions: rat, 10 mg/kg intravenously, 2 hr post-dose
Procedure: Compound CC was administered intravenously (10 mg/kg) into the veins of Sprague-Dawley rats. After 2 hr, blood samples were obtained from the animals and their vascular systems were perfused with approximately 100 mL of saline to rid their brains of blood. The brains were removed from the animals, weighed, and homogenized in a 50 mL conical tube containing 10 equivalents (w/v) of methanol/saline (1:1) using a Tissue Tearer (Fischer Scientific). The homogenized material was extracted by adding 600 μL of cold methanol to 250 μL of brain homogenate vortexed for 30 sec and subjected to centrifugation for 5 min. After centrifugation, 600 μL of the resulting supernatant was transferred to a clean tube and evaporated at room temperature under reduced pressure to provide a pellet. […] The brain homogenate analysis samples, plasma analysis samples, and standard analysis samples were analyzed and compared using HPLC by injecting 100 μL of a sample onto a 5 μm C-18 Luna column (4.6 mm×150 mm, commercially available from Phenomenex of Torrance, Calif.) and eluting at 1 mL/min with a linear gradient of 30% aqueous acetonitrile containing 0.1% trifluoroacetic acid to 90% aqueous acetonitrile containing 0.1% trifluoroacetic acid over 8 minutes and holding at 90% aqueous acetonitrile containing 0.1% trifluoroacetic acid for 3 min. with absorbance detection at 450 nm. […]

[3] = Solubility in aqueous media; type: physicochemical

Nc1ccc2snc3c2c1C(=O)c1ccccc1-3 [Compound CC]
protection of neurons from 6-OHDA, by [3H]dopamine uptake [1]: protects rat ventral mesencephalan neurons from the toxic effects of 6-OHDA | brain-drug concentration [2]: approximately 65 nmole/g | solubility in aqueous media [3]: limited solubility

From patent US6987184B2, “Isothiazoloanthrones, isoxazoloanthrones, isoindolanthrones and derivatives thereof as JNK inhibitors and compositions and methods related” (Signal Pharmaceuticals, LLC, priority 2001, dated 2006)
